Results reported in ChEMBL document CHEMBL1909046, “DrugMatrix in vitro pharmacology data”.

Experiments:
[1] = DRUGMATRIX: Nicotinic Acetylcholine radioligand binding (ligand: [125I] Epibatidine); format: cell membranes, Membrane; conditions: imr-32; Not Active = under 50% inhibition at 10 µM
[2] = target: 5-hydroxytryptamine receptor 1B (Rattus norvegicus, UniProt P28564); format: cell membranes, Wistar, Cerebral cortex, Membrane; also: in other assays of this panel Not Active means under 50% inhibition at 10 µM
Sequence of 5-hydroxytryptamine receptor 1B (P28564 whole entry): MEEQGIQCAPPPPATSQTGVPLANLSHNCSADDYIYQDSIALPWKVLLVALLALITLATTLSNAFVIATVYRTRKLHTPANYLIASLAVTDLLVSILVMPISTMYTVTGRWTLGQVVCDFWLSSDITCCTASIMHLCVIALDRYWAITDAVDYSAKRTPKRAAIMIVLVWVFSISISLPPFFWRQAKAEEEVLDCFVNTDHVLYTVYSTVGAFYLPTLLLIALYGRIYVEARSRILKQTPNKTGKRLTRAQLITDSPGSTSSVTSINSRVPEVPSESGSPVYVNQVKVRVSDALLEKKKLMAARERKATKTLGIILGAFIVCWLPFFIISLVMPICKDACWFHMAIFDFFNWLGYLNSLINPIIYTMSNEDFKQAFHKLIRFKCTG

[3] = target: Protein phosphatase 3 catalytic subunit alpha (Homo sapiens, UniProt Q08209); parameters: species or system Escherichia coli;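 also: inhibition of calcineurin (PP2B) enzyme activity, measured with DiFMUP as the substrate; in other assays of this panel Not Active means under 50% inhibition at 10 µM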
[4] = DRUGMATRIX: GABAA, Chloride Channel, TBOB radioligand binding (ligand: [3H] TBOB); format: cell membranes, Rattus norvegicus, Wistar, Cerebral cortex, Membrane; conditions: Not Active = under 50% inhibition at 10 µM
[5] = target: Mitogen-activated protein kinase 14 (Homo sapiens, UniProt Q16539); parameters: species or system Escherichia coli;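 also: inhibition of p38alpha enzyme activity in a biochemical kinase assay, with myelin basic protein serving as substrate; in other assays of this panel Not Active means under 50% inhibition at 10 µM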
Sequence of Mitogen-activated protein kinase 14 (Q16539 whole entry): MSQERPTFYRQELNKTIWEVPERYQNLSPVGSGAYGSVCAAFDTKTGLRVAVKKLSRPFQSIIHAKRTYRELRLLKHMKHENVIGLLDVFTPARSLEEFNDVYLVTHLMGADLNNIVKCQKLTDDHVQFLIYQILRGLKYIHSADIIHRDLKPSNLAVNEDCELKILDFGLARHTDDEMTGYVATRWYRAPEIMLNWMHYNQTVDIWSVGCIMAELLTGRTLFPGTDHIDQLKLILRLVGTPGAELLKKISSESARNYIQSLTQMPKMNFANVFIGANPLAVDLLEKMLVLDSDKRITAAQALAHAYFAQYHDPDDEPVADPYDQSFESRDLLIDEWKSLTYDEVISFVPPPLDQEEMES

[6] = target: Tyrosine-protein kinase Fyn (Homo sapiens, UniProt P06241); assay: biochemical; format: cell-based, Insect cells;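 also: enzymatic inhibition of Fyn kinase activity measured with Poly(Glu:Tyr) as the phosphorylation substrate; in other assays of this panel Not Active means under 50% inhibition at 10 µM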
Sequence of Tyrosine-protein kinase Fyn (P06241 whole entry): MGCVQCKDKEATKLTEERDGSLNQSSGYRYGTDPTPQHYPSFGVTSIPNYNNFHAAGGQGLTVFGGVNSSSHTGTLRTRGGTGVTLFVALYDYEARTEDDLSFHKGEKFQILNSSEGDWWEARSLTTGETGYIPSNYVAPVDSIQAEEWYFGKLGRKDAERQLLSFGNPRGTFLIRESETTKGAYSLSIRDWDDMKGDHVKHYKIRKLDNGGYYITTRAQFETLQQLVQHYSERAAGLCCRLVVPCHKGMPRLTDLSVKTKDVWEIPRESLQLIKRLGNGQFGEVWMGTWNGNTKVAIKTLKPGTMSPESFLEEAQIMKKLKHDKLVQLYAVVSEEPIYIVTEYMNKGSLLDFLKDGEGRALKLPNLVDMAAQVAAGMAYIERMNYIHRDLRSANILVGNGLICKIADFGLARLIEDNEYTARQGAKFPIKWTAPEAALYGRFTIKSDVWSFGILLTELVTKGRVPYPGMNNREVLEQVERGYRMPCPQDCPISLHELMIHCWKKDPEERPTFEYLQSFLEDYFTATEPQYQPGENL

[7] = target: Glycine receptor (Rattus norvegicus, UniProt P22771+P24524+P07727+P20781); format: cell membranes, Wistar, Spinal cord, Membrane; also: in other assays of this panel Not Active means under 50% inhibition at 10 µM

| Compound | IC50 [1] | Ki [1] | IC50 [2] | IC50 [3] | IC50 [4] | Ki [4] | IC50 [5] | IC50 ([6]; insect cells) | IC50 [7] | IC50 ([5]; read-out: IC50) | IC50 ([6]; read-out: IC50) | Ki [2] | Ki [3] | Ki [5] | IC50 ([6]; insect cells, read-out: IC50) | Ki [7] |
| --- | --- | --- | --- | --- | --- | --- | --- | --- | --- | --- | --- | --- | --- | --- | --- | --- |
| CO[C@@]12[C@H](COC(N)=O)C3=C(C(=O)C(C)=C(N)C3=O)N1C[C@@H]1N[C@@H]12 [MITOMYCIN] | Not Active | Not Active | Not Active | Not Active | Not Active | Not Active | Not Active | Not Active | Not Active |  |  |  |  |  |  |  |
| Cc1[nH]c(=O)c(C#N)cc1-c1ccncc1 [MILRINONE] | Not Active | Not Active | Not Active | Not Active | Not Active | Not Active | Not Active | Not Active | Not Active |  |  |  |  |  |  |  |
| CC(Cl)(Cl)Cl [TRICHLOROETHANE] | Not Active | Not Active | Not Active | Not Active | Not Active | Not Active | Not Active | Not Active | Not Active |  |  |  |  |  |  |  |
| CC[C@H](C)C(=O)O[C@H]1CCC=C2C=C[C@H](C)[C@H](CC[C@@H]3C[C@@H](O)CC(=O)O3)[C@H]21 [MEVASTATIN] | Not Active | Not Active | Not Active | Not Active | Not Active | Not Active | Not Active | Not Active | Not Active |  |  |  |  |  |  |  |
| CC(=O)O[C@]1(C(C)=O)CC[C@H]2[C@@H]3C[C@H](C)C4=CC(=O)CC[C@]4(C)[C@H]3CC[C@@]21C [MEDROXYPROGESTERONE ACETATE] | Not Active | Not Active | Not Active | Not Active | Not Active | Not Active | Not Active | Not Active | Not Active |  |  |  |  |  |  |  |
| CC[C@@]1(O)C(=O)OCc2c1cc1n(c2=O)Cc2cc3c(CN(C)C)c(O)ccc3nc2-1 [TOPOTECAN] | Not Active | Not Active | Not Active | Not Active | Not Active | Not Active | Not Active | Not Active | Not Active |  |  |  |  |  |  |  |
| CC#C[C@]1(O)CC[C@H]2[C@@H]3CCC4=CC(=O)CCC4=C3[C@@H](c3ccc(N(C)C)cc3)C[C@@]21C [MIFEPRISTONE] | Not Active | Not Active | Not Active | Not Active | Not Active | Not Active |  |  | Not Active | 83.1 µM | 21.4 µM |  |  |  |  |  |
| Cc1cnc(NC(=O)C2=C(O)c3ccccc3S(=O)(=O)N2C)s1 [MELOXICAM] | Not Active | Not Active | Not Active | Not Active | Not Active | Not Active | Not Active | Not Active | Not Active |  |  |  |  |  |  |  |
| O=[As][O-].[Na+] [SODIUM ARSENITE] | Not Active | Not Active | Not Active | Not Active | Not Active | Not Active | Not Active | Not Active | Not Active |  |  |  |  |  |  |  |
| Cc1cccc(C)c1NC(=O)C(C)N (stereo not given) [TOCAINIDE] | Not Active | Not Active | Not Active | Not Active | Not Active | Not Active | Not Active | Not Active | Not Active |  |  |  |  |  |  |  |
| COC(=O)Nc1nc2ccc(C(=O)c3ccccc3)cc2[nH]1 [MEBENDAZOLE] | Not Active | Not Active | Not Active | Not Active | Not Active | Not Active | Not Active | Not Active | Not Active |  |  |  |  |  |  |  |
| CCOC(=O)C1=C(C)NC(C)=C(C(=O)OCC)C1c1ccccc1/C=C/C(=O)OC(C)(C)C [LACIDIPINE] | Not Active | Not Active | Not Active | Not Active | Not Active | Not Active | Not Active | Not Active | Not Active |  |  |  |  |  |  |  |
| CC[C@H](C)[C@@H](CO[C@@H](Cc1ccccc1)C(=O)N[C@@H](CCS(C)(=O)=O)C(=O)OC(C)C)NC[C@@H](N)CS | Not Active | Not Active | Not Active | Not Active | Not Active | Not Active | Not Active |  | Not Active |  | 0.813 µM |  |  |  |  |  |
| O=C(c1ccccc1)c1ccc2n1CCC2C(=O)O (stereo not given) [KETOROLAC] | Not Active | Not Active | Not Active | Not Active | Not Active | Not Active | Not Active | Not Active | Not Active |  |  |  |  |  |  |  |
| O=C(O)c1cc(/N=N/c2ccc(S(=O)(=O)Nc3ccccn3)cc2)ccc1O [SULFASALAZINE] | Not Active | Not Active | Not Active | Not Active | Not Active | Not Active | Not Active | Not Active | Not Active |  |  |  |  |  |  |  |
| CC1(C)[C@H](C(=O)O)N2C(=O)C[C@H]2S1(=O)=O [SULBACTAM] | Not Active | Not Active | Not Active | Not Active | Not Active | Not Active | Not Active | Not Active | Not Active |  |  |  |  |  |  |  |
| C1CCN2C[C@@H]3C[C@@H](CN4CCCC[C@@H]34)[C@H]2C1 [SPARTEINE] | Not Active | Not Active | Not Active | Not Active | Not Active | Not Active | Not Active | Not Active | Not Active |  |  |  |  |  |  |  |
| LEAD(IV) ACETATE | Not Active | Not Active | Not Active | Not Active | Not Active | Not Active | Not Active |  | Not Active |  |  | Not Active | Not Active | Not Active | 3.31 µM | Not Active |
| CC(O)C(=O)O (stereo not given) [LACTIC ACID] | Not Active | Not Active | Not Active | Not Active | Not Active | Not Active | Not Active | Not Active | Not Active |  |  |  |  |  |  |  |
